According to US8242159B2, “1,3-dihydro-5-isobenzofurancarbonitrile derivatives and pharmaceutical composition thereof for the treatment of premature ejaculation” (Dong-A Pharmaceutical. Co., Ltd, priority 2007, dated 2012):

Legend:
[1] = test system: Male Wistar rats; assay: p-PCA-induced ejaculation in anesthetized rats (ejaculation-delaying effect); assay type: in vivo, rat; settings: for Ratio: Number of responding animals/total animal number: 50 mg/kg oral in 1% HPMC, p-PCA 5 mg/kg i.p. 80 min later, observed 30 min; for Latency: Time to display the ejaculatory response: 50 mg/kg oral, p-PCA 5 mg/kg i.p., mean ± standard deviation of responding rats
Experimental: The compounds prepared in the above examples were evaluated to determine whether they have an effect of delaying ejaculation. The evaluation was carried out using an animal model according to a method described in Yonezawa et al., Life Sci. 2000, 67(25) p 3031-9. Male Wistar rats weighing 240-260 g were used. Each compound was suspended in 1% HPMC, and then administered orally to each animal. After 60 min, the animals were anesthetized and fixed. 20 min later, para-chloroamphetamine (p-PCA) was intraperitoneally administered in a dose of 5 mg/kg in order to induce ejaculation. […] An ejaculatory response was considered to be elicited when rhythmic contraction of bulbocavernosus muscles and semen discharge occurs. Six or more animals were used for each compound. A Fisher's […] test was performed for the comparison of the proportion of responding rats (ejaculated rats) to determine significance of difference between a treatment group and a vehicle control. The time to reach ejaculation was expressed as mean±standard deviation.
Each test compound was administered at a dose of 50 mg/kg. Ejaculation was elicited in all seven animals of a control group.

[2] = Determination of half-lives of the compounds in rats (oral, plasma HPLC); assay type: in vivo; settings: rat, male Sprague-Dawley rats, 10 mg/kg (text also says 5 mg/kg), 0.5% methylcellulose
Experimental: The half-lives of present compounds were determined as follows. Each compound was administered orally to male Sprague-Dawley rats weighing approximately 270 g at a dose of 10 mg/kg. 5 mg/kg of each compound was suspended in 0.5% methyl-cellulose and then administered to rats. Blood samples were collected 0.017, 0.083, 0.25, 0.5, 1, 2, 3, 5, 7 and 24 hours after administration, and centrifuged at 1,000 rpm for 3 min to separate plasma. The concentration of each compound in plasma was determined using high performance liquid chromatography, which was performed with a mobile phase of 10 mM ammonium formate (pH 3.0) and acetonitrile (50:50), an […] column (21×100 mm, 3 μm) and a flow rate of 0.2 ml/min.

[3] = target: T1, 5HT1A receptor (Homo sapiens, UniProt P08908); assay: Radioligand competitive binding assay; settings: human-derived recombinant CHO cells
T1 construct: expressed in transfected cells; host or cells: CHO cells
T1 sequence (P08908 1-422): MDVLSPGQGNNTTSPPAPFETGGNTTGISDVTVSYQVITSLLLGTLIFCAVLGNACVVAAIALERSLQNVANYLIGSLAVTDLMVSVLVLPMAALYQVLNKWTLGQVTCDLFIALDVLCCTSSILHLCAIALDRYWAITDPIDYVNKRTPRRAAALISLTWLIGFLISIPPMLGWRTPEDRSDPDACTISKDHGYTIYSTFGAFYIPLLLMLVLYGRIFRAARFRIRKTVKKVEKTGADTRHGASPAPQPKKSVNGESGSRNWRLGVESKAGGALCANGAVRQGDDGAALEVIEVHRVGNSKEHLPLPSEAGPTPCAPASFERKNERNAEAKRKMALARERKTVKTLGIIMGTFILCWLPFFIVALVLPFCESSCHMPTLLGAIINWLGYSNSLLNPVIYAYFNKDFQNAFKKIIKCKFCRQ
Experimental: (§1) In addition, ligand binding to 5HT1A, 5-HT1B and 5-HT2C receptors and 5-HT transporter was evaluated with human-derived recombinant CHO cells, Wistar rat-derived cerebral cortical cells, human-derived recombinant CHO-K1 cells, and human-derived recombinant HEK-293 cells. Each cell line was dosed with 10^−5 μM to 10^4 μM of the compounds of Examples 2, 35, 40 and 45, and then incubated with a radio-labeled ligand for competitive binding. Ligands used were […], [^125I]Cyanopindolol, [^3H]Mesulergine and [^3H]Paroxetine, respectively. The competitive binding assay was carried out in 50 mM Tris-HCl buffer at 25° C. or 37° C., for 60 to 90 min.

[4] = target: T2, 5-HT1B receptor (Rattus norvegicus, UniProt P28564); assay: Radioligand competitive binding assay, [125I]Cyanopindolol; settings: Wistar rat-derived cerebral cortical cells
T2 construct: Wistar rat-derived cerebral cortical cells; from tissue; host or cells: Wistar rat cerebral cortex
Experimental: as §1

[5] = target: T3, 5-HT2C receptor (Homo sapiens, UniProt P28335); assay: Radioligand competitive binding assay, [3H]Mesulergine; settings: human-derived recombinant CHO-K1 cells
T3 construct: expressed in transfected cells; host or cells: CHO-K1 cells
T3 sequence (P28335 33-458): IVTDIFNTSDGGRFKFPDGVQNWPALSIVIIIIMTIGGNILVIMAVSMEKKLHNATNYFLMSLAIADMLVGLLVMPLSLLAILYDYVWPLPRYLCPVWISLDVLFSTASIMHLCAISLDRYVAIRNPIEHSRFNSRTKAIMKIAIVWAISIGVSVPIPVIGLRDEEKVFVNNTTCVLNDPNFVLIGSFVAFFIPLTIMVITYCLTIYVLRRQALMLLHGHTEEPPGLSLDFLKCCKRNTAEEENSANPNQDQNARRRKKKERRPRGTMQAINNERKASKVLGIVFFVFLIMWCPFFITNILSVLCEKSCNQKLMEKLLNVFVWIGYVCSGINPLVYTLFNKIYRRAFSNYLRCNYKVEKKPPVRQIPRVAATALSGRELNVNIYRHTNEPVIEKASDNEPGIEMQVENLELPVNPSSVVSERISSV
Experimental: as §1

[6] = target: T4, 5-HT transporter (Homo sapiens, UniProt P31645); assay: Radioligand competitive binding assay, [3H]Paroxetine; settings: human-derived recombinant HEK-293 cells
T4 construct: expressed in transfected cells; host or cells: HEK-293 cells
Experimental: as §1

[7] = test system: cellular uptake of dopamine; assay: Cellular reuptake assay, [3H]dopamine; assay type: cell-based; settings: 10 min, CHO-1 cell line
Experimental: (§2) First, the effects of the present compounds on cellular uptake of dopamine, norepinephrine and serotonin were evaluated with human-derived CHO-1, MDCK and HEK-293 cell lines. Each cell line was dosed with 10^−5 μM to 10^4 μM of the compounds of Examples 2, 35, 40 and 45, and then incubated with [^3H]dopamine, [^3H]norepinephrine and [^3H]serotonin in buffer. After 10 min, the amount of each neurotransmitter taken up into cells was determined by counting radioactivity using a liquid scintillation counter (LSC).

[8] = test system: cellular uptake of norepinephrine; assay: Cellular reuptake assay, [3H]norepinephrine; assay type: cell-based; settings: 10 min, MDCK cell line
Experimental: as §2

[9] = test system: cellular uptake of serotonin; assay: Cellular reuptake assay, [3H]serotonin; assay type: cell-based; settings: Homo sapiens, HEK293, 10 min, HEK-293 cell line
Experimental: as §2

[10] = test system: Sprague-Dawley (SD) rats; assay: Acute toxicity test, single dose, mortality; assay type: in vivo, rat
Source text: The present derivatives and citalopram were individually administered orally and intra-venously to SD rats at a single dose.

[11] = target: hERG (human Ether-a-go-go Related Gene) (Homo sapiens, UniProt Q12809); assay: Cardiotoxicity test, hERG assay (MDS Pharma)
Source text: To evaluate the safety of the present derivatives in comparison with control drug, conducted was hERG (human Ether-a-go-go Related Gene) assay which is a representative test of safety medical test. This test was requested to trial institute MDS Pharma., which conducted this test.

[12] = test system: Salmonella typhimurium TA98, 100, 1535, 1537, E. coli WP2 uvrA; assay: Mutagenicity test: Ames test; assay type: cell-based; settings: 8, 40, 200, 1000, 2500, 5000 μg/plate, presence/absence of a metabolic activation system
Experimental: (§3) To evaluate the safety of the present derivatives, mutagenicity test was conducted. Ames test and chromosome aberration test were conducted with the examples 2, 35, 40 and 45.

[13] = test system: CHL (Chinese Hamster Lung) cell; assay: Mutagenicity test: chromosome aberration test; assay type: cell-based; settings: 75, 150, 300 μg/ml with metabolic activation; 20, 40, 80 μg/ml without
Experimental: as §3

T4 sequence (P31645 whole entry): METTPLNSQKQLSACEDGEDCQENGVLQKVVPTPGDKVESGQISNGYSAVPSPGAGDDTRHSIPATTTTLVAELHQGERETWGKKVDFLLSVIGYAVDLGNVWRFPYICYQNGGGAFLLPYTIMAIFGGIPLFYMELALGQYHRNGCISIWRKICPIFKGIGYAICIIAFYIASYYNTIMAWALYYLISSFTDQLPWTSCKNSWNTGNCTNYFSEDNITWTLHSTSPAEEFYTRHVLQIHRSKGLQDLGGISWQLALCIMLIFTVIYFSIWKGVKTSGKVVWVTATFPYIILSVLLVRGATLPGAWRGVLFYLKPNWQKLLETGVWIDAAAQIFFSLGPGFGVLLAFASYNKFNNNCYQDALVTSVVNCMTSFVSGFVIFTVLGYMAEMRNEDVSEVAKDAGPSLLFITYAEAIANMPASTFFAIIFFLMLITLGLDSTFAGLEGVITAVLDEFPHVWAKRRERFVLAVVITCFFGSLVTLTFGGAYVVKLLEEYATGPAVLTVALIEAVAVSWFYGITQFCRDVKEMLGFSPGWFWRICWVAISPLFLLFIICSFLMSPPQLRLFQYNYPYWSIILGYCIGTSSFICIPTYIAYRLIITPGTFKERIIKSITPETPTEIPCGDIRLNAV
T2 sequence (P28564 whole entry): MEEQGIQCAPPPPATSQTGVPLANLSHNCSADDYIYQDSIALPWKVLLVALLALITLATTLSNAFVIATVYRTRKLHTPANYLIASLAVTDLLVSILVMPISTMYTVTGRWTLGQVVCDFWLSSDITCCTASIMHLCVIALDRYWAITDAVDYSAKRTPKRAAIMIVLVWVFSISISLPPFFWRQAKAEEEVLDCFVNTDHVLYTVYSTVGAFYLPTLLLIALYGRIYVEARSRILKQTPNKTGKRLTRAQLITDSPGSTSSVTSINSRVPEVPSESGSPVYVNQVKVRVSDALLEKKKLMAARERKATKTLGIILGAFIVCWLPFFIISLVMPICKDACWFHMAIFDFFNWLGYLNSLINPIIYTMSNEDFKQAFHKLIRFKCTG
Sequence of hERG (human Ether-a-go-go Related Gene) (Q12809 whole entry): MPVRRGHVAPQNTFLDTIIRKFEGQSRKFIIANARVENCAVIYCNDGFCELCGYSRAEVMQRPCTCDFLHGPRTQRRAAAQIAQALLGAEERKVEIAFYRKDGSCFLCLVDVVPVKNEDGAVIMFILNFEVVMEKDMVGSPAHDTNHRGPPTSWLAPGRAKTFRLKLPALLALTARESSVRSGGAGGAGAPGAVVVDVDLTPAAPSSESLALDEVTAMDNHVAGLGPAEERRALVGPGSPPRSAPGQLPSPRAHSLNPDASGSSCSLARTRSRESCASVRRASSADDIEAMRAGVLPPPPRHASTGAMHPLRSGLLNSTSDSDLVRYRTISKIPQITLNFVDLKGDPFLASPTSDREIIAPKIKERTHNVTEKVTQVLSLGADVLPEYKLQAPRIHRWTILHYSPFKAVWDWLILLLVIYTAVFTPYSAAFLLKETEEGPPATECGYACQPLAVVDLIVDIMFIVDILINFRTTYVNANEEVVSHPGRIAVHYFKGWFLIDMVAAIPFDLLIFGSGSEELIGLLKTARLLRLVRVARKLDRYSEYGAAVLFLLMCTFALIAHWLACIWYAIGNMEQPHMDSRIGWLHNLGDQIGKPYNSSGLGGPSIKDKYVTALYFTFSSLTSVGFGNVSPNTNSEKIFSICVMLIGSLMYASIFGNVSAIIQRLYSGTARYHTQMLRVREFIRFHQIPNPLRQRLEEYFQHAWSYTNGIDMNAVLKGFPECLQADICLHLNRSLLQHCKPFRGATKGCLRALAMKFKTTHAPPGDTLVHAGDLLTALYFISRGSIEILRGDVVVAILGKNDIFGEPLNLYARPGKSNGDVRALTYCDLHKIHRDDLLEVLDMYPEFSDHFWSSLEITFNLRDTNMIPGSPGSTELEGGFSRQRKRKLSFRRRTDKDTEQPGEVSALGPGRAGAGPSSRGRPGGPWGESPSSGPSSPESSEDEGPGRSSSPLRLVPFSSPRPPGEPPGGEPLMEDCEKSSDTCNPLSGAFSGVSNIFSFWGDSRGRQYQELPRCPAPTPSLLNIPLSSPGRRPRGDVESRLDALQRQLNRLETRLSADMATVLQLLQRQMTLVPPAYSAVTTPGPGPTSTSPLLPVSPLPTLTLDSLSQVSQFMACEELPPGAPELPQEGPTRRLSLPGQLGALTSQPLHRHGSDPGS

| SMILES | Ratio: Number of responding animals/total animal number [1] | Latency: Time to display the ejaculatory response [1] [s] | further results |
| --- | --- | --- | --- |
| COc1ccc(C2(CCCN(C)C)OCc3cc(C#N)ccc32)cc1.O=C(O)C(=O)O (stereo not drawn) [Ex. 2, 1-{3-(dimethylamino)propyl}-1-(4-methoxyphenyl)-1,3-dihydro-5-isobenzofurancarbonitrile oxalate] | 0/9 |  | Tmax [2]: 19.8 min; half-life [2]: 76.8 min; IC50 [3]: 805 µM; IC50 [4]: > 1000 µM; IC50 [5]: 7.12 µM; IC50 [6]: < 0.0001 µM; IC50 [7]: 85.7 µM; IC50 [8]: 36.5 µM; IC50 [9]: 0.304 µM; minimum lethal dose ([10]; Intravenously, female SD rats): 70; minimum lethal dose ([10]; Intravenously, male SD rats): 70; minimum lethal dose ([10]; Orally, female SD rats): 1000; minimum lethal dose ([10]; Orally, male SD rats): 1000; IC50 [11]: 19.4 µM; Ames test result [12]: negative; chromosome aberration test result [13]: negative |
| Cl.N#Cc1ccc2c(c1)COC2(CCCn1cccn1)c1ccc(F)cc1 (stereo not drawn) [Ex. 58, 1-(4-fluorophenyl)-1-{3-(pyrazole-1-yl)propyl}-1,3-dihydro-5-isobenzofurancarbonitrile hydrochloride] | 4/9 | 850 ± 362 |  |
| N#Cc1ccc2c(c1)COC2(CCn1cccn1)c1ccc(F)cc1 (stereo not drawn) [Ex. 59, 1-(4-fluorophenyl)-1-{2-(pyrazole-1-yl)ethyl}-1,3-dihydro-5-isobenzofurancarbonitrile] | 3/7 | 954 ± 287 |  |
| Cl.N#Cc1ccc2c(c1)COC2(CCn1cccn1)c1ccc(F)cc1 (stereo not drawn) [Ex. 60, 1-(4-fluorophenyl)-1-{2-(pyrazole-1-yl)ethyl}-1,3-dihydro-5-isobenzofurancarbonitrile hydrochloride] | 4/9 | 1010 ± 400 |  |
| N#Cc1ccc2c(c1)COC2(CCCn1ccnc1)c1ccc(Cl)cc1 (stereo not drawn) [Ex. 61, 1-(4-chlorophenyl)-1-{3-(imidazole-1-yl)propyl}-1,3-dihydro-5-isobenzofurancarbonitrile] | 3/7 | 930 ± 247 |  |
| Cl.N#Cc1ccc2c(c1)COC2(CCCn1ccnc1)c1ccc(Cl)cc1 (stereo not drawn) [Ex. 62, 1-(4-chlorophenyl)-1-{3-(imidazole-1-yl)propyl}-1,3-dihydro-5-isobenzofurancarbonitrile hydrochloride] | 4/7 | 888 ± 284 |  |
| N#Cc1ccc2c(c1)COC2(CCn1ccnc1)c1ccc(Cl)cc1 (stereo not drawn) [Ex. 63, 1-(4-chlorophenyl)-1-{2-(imidazole-1-yl)ethyl}-1,3-dihydro-5-isobenzofurancarbonitrile] | 3/7 | 904 ± 307 |  |
| Cl.N#Cc1ccc2c(c1)COC2(CCn1ccnc1)c1ccc(Cl)cc1 (stereo not drawn) [Ex. 64, 1-(4-chlorophenyl)-1-{2-(imidazole-1-yl)ethyl}-1,3-dihydro-5-isobenzofurancarbonitrile hydrochloride] | 4/7 | 1032 ± 299 |  |
| N#Cc1ccc2c(c1)COC2(CCCn1cccn1)c1ccc(Cl)cc1 (stereo not drawn) [Ex. 65, 1-(4-chlorophenyl)-1-{3-(pyrazole-1-yl)propyl}-1,3-dihydro-5-isobenzofurancarbonitrile] | 5/9 | 801 ± 401 |  |
| Cl.N#Cc1ccc2c(c1)COC2(CCCn1cccn1)c1ccc(Cl)cc1 (stereo not drawn) [Ex. 66, 1-(4-chlorophenyl)-1-{3-(pyrazole-1-yl)propyl}-1,3-dihydro-5-isobenzofurancarbonitrile hydrochloride] | 4/7 | 960 ± 350 |  |
| N#Cc1ccc2c(c1)COC2(CCn1cccn1)c1ccc(Cl)cc1 (stereo not drawn) [Ex. 67, 1-(4-chlorophenyl)-1-{2-(pyrazole-1-yl)ethyl}-1,3-dihydro-5-isobenzofurancarbonitrile] | 3/7 | 853 ± 352 |  |
| Cl.N#Cc1ccc2c(c1)COC2(CCn1cccn1)c1ccc(Cl)cc1 (stereo not drawn) [Ex. 68, 1-(4-chlorophenyl)-1-{2-(pyrazole-1-yl)ethyl}-1,3-dihydro-5-isobenzofurancarbonitrile hydrochloride] | 4/9 | 908 ± 274 |  |
